# Reference: paper PMC10059999, “Assessment of Lipophilicity Parameters of Antimicrobial and Immunosuppressive Compounds” (Molecules, 2023)
# Where two headings read alike, the source gives them in different places.
# Tests used:
# [1] = RP-TLC determination of chromatographic lipophilicity parameter RMW (Soczewiński–Wachtmeister extrapolation to pure water); assay type: physicochemical; conditions: for RMW values, range: range over all plates (RP2F254, RP18F254, RP18WF254) and all mobile phases
# Experimental: Thin-layer chromatography aluminum plates (20 cm × 20 cm, 0.25 mm) precoated with silica gel RP18F254, and glass plates coated with silica gel RP18WF254 (20 cm × 10 cm) and silica gel RP2F254 (10 cm × 10 cm) were obtained from Merck (Darmstadt, Germany).
# The chromatographic analysis was carried out according to the procedure described earlier on RP-TLC plates (RP2F254, RP18F254, RP18WF254) as a stationary phase using three different mobile phases. Five microliters of standard solutions of analytes were spotted onto the chromatographic plates. The chromatographic chamber 20 cm × 10 cm (Camag, Switzerland) was saturated with the mobile phase vapors for 20 min. The mobile phases were prepared by mixing appropriate organic modifiers (ethanol, propan-2-ol, acetonitrile) and water in different volume compositions. The content of the organic modifier in the mobile phase used was changed in the step of 5% (v/v) in the range of 30–90% v/v. Thus, the mobile phases used consisted of a suitable organic solvent and water mixed in the following volume compositions: 30:70; 35:65; 40:60; 45:55; 50:50; […]; 60:40; 65:35; 70:30; 75:25; 80:20; 85:15 and 90:10. Chromatograms were developed at room temperature (21 ± 1 °C) to the solvent distance of 7 cm. Next, the chromatograms were dried for 24 h at (21 ± 1 °C) in a fume cupboard. The detection of the studied compounds was carried out under a UV lamp at 254 nm (Camag, Muttenz, Switzerland). The values of Rf (retardation factor) are the average values of three independent measurements in each case.
# [2] = parameters: method as in ChemSpider / selleckchem.com; conditions: ref ChemSpider / selleckchem.com, cited from earlier work; for Solubility in Water / logS: aqueous solubility
# [3] = parameters: method as in DrugBank; conditions: n-octanol-water, ref DrugBank, cited from earlier work
# [4] = RP2F254 plates, acetonitrile-water mobile phase
# [5] = RP2F254 plates, ethanol–water mobile phase
# [6] = RP2F254 plates, propan-2-ol-water mobile phase
# [7] = RP18F254 plates, acetonitrile-water mobile phase
# [8] = RP18F254 plates, ethanol–water mobile phase
# [9] = RP18F254 plates, propan-2-ol-water mobile phase
# [10] = RP18WF254 plates, acetonitrile-water mobile phase
# [11] = RP18WF254 plates, ethanol–water mobile phase
# [12] = RP18WF254 plates, propan-2-ol-water mobile phase
Structure (SMILES),"RMW [1, 4]","RMW [1, 5]","RMW [1, 6]","RMW [1, 7]","RMW [1, 8]","RMW [1, 9]","RMW [1, 10]","RMW [1, 11]","RMW [1, 12]",Solubility in Water [2] [µg/mL],logS [2],pKa (Strongest Acidic) [2],pKa (Strongest Basic) [2],"RMW values, range [1]","RMW values, range on RP2F254 ([1]; RP2F254 plates, range over the three mobile phases)",logPexp (Experimental Value) [3],logPexp (Experimental Value) ([3]; listed as ceftazidime)
"Nc1nc(-n2cc(C(=O)O)c(=O)c3cc(F)c(N4CC(O)C4)c(Cl)c32)c(F)cc1F [Delafloxacin, delafloxacin]",0.6615,0.9184,0.7390,2.3174,2.1359,1.7719,1.8351,1.9694,1.6940,69.9,−3.8,5.62,−1.3,,,,
"CC(=O)NC[C@H]1CN(c2ccc(N3CCSCC3)c(F)c2)C(=O)O1 [Sutezolid, sutezolid]",1.4312,1.4334,1.1590,2.2114,1.8680,1.5937,2.0329,1.9661,1.4784,237,−3.2,14.85,−0.14,,,,
"CO[C@H]1C[C@@H]2CC[C@@H](C)[C@@](O)(O2)C(=O)C(=O)N2CCCC[C@H]2C(=O)O[C@H]([C@H](C)C[C@@H]2CC[C@@H](OCCO)[C@H](OC)C2)CC(=O)[C@H](C)/C=C(\C)[C@@H](O)[C@@H](OC)C(=O)[C@H](C)C[C@H](C)/C=C/C=C/C=C/1C [Everolimus, everolimus]",2.8557,2.9460,2.2145,2.9462,3.5637,2.5865,2.7737,2.8227,2.5687,1.63,−5.8,9.96,−2.7,2.2145–3.5637,,,
"CO[C@H]1C[C@@H]2CC[C@@H](C)[C@@](O)(O2)C(=O)C(=O)N2CCCC[C@H]2C(=O)O[C@H]([C@H](C)C[C@@H]2CC[C@H](n3cnnn3)[C@H](OC)C2)CC(=O)[C@H](C)/C=C(\C)[C@@H](O)[C@@H](OC)C(=O)[C@H](C)C[C@H](C)/C=C/C=C/C=C/1C [Zotarolimus, zotarolimus]",2.7480,3.3623,2.1522,3.1252,3.1105,2.4741,3.2300,2.7377,2.7821,,,,,2.1522–3.3623,,,
"CC(C)(O/N=C(\C(=O)N[C@@H]1C(=O)N2C(C(=O)[O-])=C(C[n+]3ccccc3)CS[C@H]12)c1csc(N)n1)C(=O)O [Ceftazidime, ceftazidime]",−0.0357,−0.6643,−0.3642,0.1462,−2.9545,0.4691,0.4121,0.4152,0.9153,5.73,−5.0,2.42,4.02,−2.9545 to 0.9153,−0.0357 to −0.6643,−1.60,−1.6
